Numbered stars: 1 amine (or outer) side, 2 acyl side, 3 side chain; on linkers, the order of the positions; unused ones are H or OH. Peptide text beside a SMILES is read from it. * marks the point of attachment. C20 diacid = O=C(O)CCCCCCCCCCCCCCCCCCC(=O)*; γGlu = O=C(O)[C@H](CCC(=O)[*:2])N[*:1]; C14 diacid = O=C(O)CCCCCCCCCCCCC(=O)*
What was measured:
[1] = Stability in pH 7.5 buffer assessed as compound recovery at 1 uM by Thioflavin T based fluorescence assay; format: physicochemical; conditions: read-out: Drug recovery
[2] = Solubility in 100 mM bistrispropane buffer at pH 7.0 incubated for 18 hrs by UPLC analysis; format: physicochemical
[3] = Solubility in 100 mM bistrispropane buffer at pH 6.5 incubated for 18 hrs by UPLC analysis; format: physicochemical
[4] = Solubility in 100 mM glycylglycine buffer at pH 3.0 incubated for 18 hrs by UPLC analysis; format: physicochemical
[5] = target: T1, Amylin receptor AMY3; CALCR/RAMP3 (Rattus norvegicus, UniProt P32214+Q9JJ73); assay: Displacement of [125I]-labeled rat amylin from rat amylin receptor expressed in BHK tkts13 cell membranes co-expressing RAMP3 incubated for 120 mins by scintillation proximity assay
T1 sequence (P32214 whole entry): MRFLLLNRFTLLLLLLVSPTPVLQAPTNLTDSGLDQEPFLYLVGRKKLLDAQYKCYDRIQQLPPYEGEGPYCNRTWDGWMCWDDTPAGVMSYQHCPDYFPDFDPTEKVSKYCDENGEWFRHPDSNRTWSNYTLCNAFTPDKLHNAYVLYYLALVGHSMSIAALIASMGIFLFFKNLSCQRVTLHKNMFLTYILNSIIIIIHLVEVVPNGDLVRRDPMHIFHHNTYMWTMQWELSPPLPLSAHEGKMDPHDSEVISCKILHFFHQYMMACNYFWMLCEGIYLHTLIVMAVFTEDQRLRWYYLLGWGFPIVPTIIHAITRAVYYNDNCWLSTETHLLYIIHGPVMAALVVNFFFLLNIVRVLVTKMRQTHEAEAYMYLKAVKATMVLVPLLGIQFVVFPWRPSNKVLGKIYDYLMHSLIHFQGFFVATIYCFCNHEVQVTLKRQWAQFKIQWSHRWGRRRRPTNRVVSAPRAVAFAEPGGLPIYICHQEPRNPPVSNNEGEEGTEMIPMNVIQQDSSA
T1 sequence (Q9JJ73 whole entry): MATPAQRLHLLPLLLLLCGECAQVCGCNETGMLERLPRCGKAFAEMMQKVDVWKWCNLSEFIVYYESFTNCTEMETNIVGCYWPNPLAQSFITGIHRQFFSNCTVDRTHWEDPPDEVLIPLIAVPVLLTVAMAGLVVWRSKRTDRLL

[6] = target: T2, Amylin receptor AMY3; CALCR/RAMP3 (Homo sapiens, UniProt O60896+P30988); assay: Agonist activity at human amylin receptor expressed in BHK570 cells co-expressing RAMP3 assessed as increase in intracellular cAMP concentration incubated for 3 hrs in absence of albumin by CRE luciferase reporter gene assay; format: functional, cell-based
T2 sequence (P30988 whole entry): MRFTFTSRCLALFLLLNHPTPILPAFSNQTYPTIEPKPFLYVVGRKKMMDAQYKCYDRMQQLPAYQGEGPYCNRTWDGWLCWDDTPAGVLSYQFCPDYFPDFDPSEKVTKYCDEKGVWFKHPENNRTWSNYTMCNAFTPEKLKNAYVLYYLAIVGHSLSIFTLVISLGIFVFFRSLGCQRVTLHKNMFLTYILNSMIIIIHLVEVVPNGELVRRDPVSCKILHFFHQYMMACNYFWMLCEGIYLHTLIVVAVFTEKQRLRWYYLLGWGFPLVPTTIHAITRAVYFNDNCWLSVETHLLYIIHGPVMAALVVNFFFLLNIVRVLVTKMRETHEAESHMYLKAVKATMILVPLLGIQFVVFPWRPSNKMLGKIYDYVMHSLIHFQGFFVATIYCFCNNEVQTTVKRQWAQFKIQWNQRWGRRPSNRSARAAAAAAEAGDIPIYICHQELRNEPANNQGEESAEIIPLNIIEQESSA
T2 sequence (O60896 whole entry): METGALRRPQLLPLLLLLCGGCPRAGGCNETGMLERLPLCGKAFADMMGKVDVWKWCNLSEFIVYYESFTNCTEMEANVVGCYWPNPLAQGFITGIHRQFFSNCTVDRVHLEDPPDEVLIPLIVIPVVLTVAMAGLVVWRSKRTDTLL

[7] = Stability in pH 7.5 buffer assessed as lag time for fibril formation at 1 uM by Thioflavin T based fluorescence assay; format: physicochemical; conditions: pH 7.5, 1 µM
[8] = Solubility in 100 mM bistrispropane buffer at pH 6.0 incubated for 18 hrs by UPLC analysis; format: physicochemical
[9] = Solubility in 100 mM glycylglycine buffer at pH 4.0 incubated for 18 hrs by UPLC analysis; format: physicochemical
Calcitonin receptor [10] = target: T3, Calcitonin receptor (Homo sapiens, UniProt P30988); assay: Agonist activity at human calcitonin receptor expressed in BHK570 cells assessed as increase in intracellular cAMP concentration incubated for 3 hrs in absence of albumin by CRE luciferase reporter gene assay; format: functional, cell-based
T3 sequence (P30988 whole entry): T2 sequence (P30988 whole entry)

[11] = target: T2, Amylin receptor AMY3; CALCR/RAMP3; assay: Displacement of [125I]-labeled rat amylin from human amylin receptor expressed in BHK tkts13 whole cells co-expressing RAMP3 incubated for 60 mins by scintillation proximity assay; format: cell-based
Rattus norvegicus [12] = assay: Reduction in food intake in Sprague-Dawley rat at 3 nmol/kg measured 0 to 24 hrs post dose relative to control; format: functional; design: scale not given: the % may be the effect or the level left
Calcitonin receptor [13] = target: T3, Calcitonin receptor; assay: Agonist activity at human calcitonin receptor expressed in BHK570 cells assessed as increase in intracellular cAMP concentration incubated for 3 hrs in presence of 10% FBS by CRE luciferase reporter gene assay; format: functional, cell-based
Rattus norvegicus [14] = assay: Reduction in food intake in Sprague-Dawley rat at 3 nmol/kg measured 24 to 48 hrs post dose relative to control; format: functional; design: scale not given: the % may be the effect or the level left
[15] = Solubility in 100 mM bistrispropane buffer at pH 7.5 incubated for 18 hrs by UPLC analysis; format: physicochemical
[16] = Solubility in 100 mM bistrispropane buffer at pH 8.0 incubated for 18 hrs by UPLC analysis; format: physicochemical
[17] = target: T2, Amylin receptor AMY3; CALCR/RAMP3; assay: Agonist activity at human amylin receptor expressed in BHK570 cells co-expressing RAMP3 assessed as increase in intracellular cAMP concentration incubated for 3 hrs in presence of 10% FBS by CRE luciferase reporter gene assay; format: functional, cell-based
[18] = Solubility in 100 mM glycylglycine buffer at pH 5.0 incubated for 18 hrs by UPLC analysis; format: physicochemical
Calcitonin receptor [19] = target: T3, Calcitonin receptor; assay: Displacement of [125I]-labeled human calcitonin from human calcitonin receptor expressed in BHK tkts13 cell membranes incubated for 1 hr by scintillation proximity assay

| Compound | remaining at 1 µM [1] [%] | solubility at 18 h [2] [µM] | solubility at 18 h [3] [µM] | solubility at 18 h [4] [µM] | IC50 [5] [nM] | EC50 [6] [nM] | Time [7] [h] | solubility at 18 h [8] [µM] | solubility at 18 h [9] [µM] | EC50 (Calcitonin receptor [10]) [nM] | IC50 [11] [nM] | Activity (Rattus norvegicus [12]) [%] | EC50 (Calcitonin receptor [13]) [nM] | Activity (Rattus norvegicus [14]) [%] | solubility at 18 h [15] [µM] | solubility at 18 h [16] [µM] | EC50 [17] [nM] | solubility at 18 h [18] [µM] | IC50 (Calcitonin receptor [19]) [nM] |
| --- | --- | --- | --- | --- | --- | --- | --- | --- | --- | --- | --- | --- | --- | --- | --- | --- | --- | --- | --- |
| CC(C)C[C@H](NC(=O)CNC(=O)[C@H](CO)NC(=O)[C@H](C)NC(=O)COCCOCCNC(=O)COCCOCCNC(=O)CC[C@H](NC(=O)CCCCCCCCCCCCCCCCC(=O)O)C(=O)O)C(=O)N[C@@H](CO)C(=O)N[C@H](C(=O)N[C@@H](C)C(=O)N[C@H](C(=O)N[C@@H](CC(C)C)C(=O)NCC(=O)N[C@@H](CCCNC(=N)N)C(=O)N[C@@H](CC(C)C)C(=O)N[C@@H](CO)C(=O)N[C@@H](CCC(N)=O)C(=O)N[C@@H](CCC(=O)O)C(=O)N[C@@H](CC(C)C)C(=O)N[C@@H](Cc1cnc[nH]1)C(=O)N[C@@H](CCC(=O)O)C(=O)N[C@@H](CC(C)C)C(=O)N[C@@H](CCC(N)=O)C(=O)N[C@H](C(=O)N[C@@H](Cc1ccc(O)cc1)C(=O)N1CCC[C@H]1C(=O)N[C@@H](CCCNC(=N)N)C(=O)N[C@H](C(=O)N[C@@H](CCC(=O)O)C(=O)N[C@H](C(=O)NCC(=O)N[C@@H](CO)C(=O)NCC(=O)N[C@H](C(=O)N[C@@H](Cc1ccc(O)cc1)C(N)=O)[C@@H](C)O)[C@@H](C)O)[C@@H](C)O)[C@@H](C)O)C(C)C)[C@@H](C)O | 100 | ≥ 200 | ≥ 200 | ≥ 200 | 0.357 | 0.05 | > 45 | ≥ 200 | ≥ 200 | 0.022 | 0.801 | 0 | 0.038 | 0 | ≥ 200 | ≥ 200 | 0.08 | – | – |
| CC(C)C[C@H](NC(=O)[C@H](C)NC(=O)[C@H](C)NC(=O)[C@@H](NC(=O)[C@H](CO)NC(=O)[C@H](CC(C)C)NC(=O)[C@H](CCC(=O)O)NC(=O)[C@H](CO)NC(=O)[C@H](C)NC(=O)CCCCCCCCCCCCC(=O)O)[C@@H](C)O)C(=O)NCC(=O)N[C@@H](CCCNC(=N)N)C(=O)N[C@@H](CC(C)C)C(=O)N[C@@H](CO)C(=O)N[C@@H](C)C(=O)N[C@@H](CCC(=O)O)C(=O)N[C@@H](CC(C)C)C(=O)N[C@@H](Cc1cnc[nH]1)C(=O)N[C@@H](CCC(=O)O)C(=O)N[C@@H](CC(C)C)C(=O)N[C@@H](C)C(=O)N[C@H](C(=O)N[C@@H](CC(C)C)C(=O)N1CCC[C@H]1C(=O)N[C@@H](CCCNC(=N)N)C(=O)N[C@H](C(=O)N[C@@H](CCC(=O)O)C(=O)N[C@H](C(=O)NCC(=O)N[C@@H](CO)C(=O)NCC(=O)N[C@@H](CO)C(=O)N1CCC[C@H]1C(N)=O)[C@@H](C)O)[C@@H](C)O)[C@@H](C)O ({C14 diacid}-ASELSTAALGRLSAELHELATLPRTETGSGSP-NH2) | – | ≥ 200 | ≥ 200 | ≥ 200 | – | 0.007 | – | ≥ 200 | ≥ 200 | 0.005 | – | – | 0.004 | – | ≥ 200 | ≥ 200 | 0.006 | ≥ 200 | 0.14 |
| CC(C)C[C@H](NC(=O)CNC(=O)[C@H](CO)NC(=O)[C@H](C)NC(=O)CC[C@H](NC(=O)CCCCCCCCCCCCCCCCCCC(=O)O)C(=O)O)C(=O)N[C@@H](CO)C(=O)N[C@H](C(=O)N[C@@H](C)C(=O)N[C@H](C(=O)N[C@@H](CC(C)C)C(=O)NCC(=O)N[C@@H](CCCNC(=N)N)C(=O)N[C@@H](CC(C)C)C(=O)N[C@@H](CO)C(=O)N[C@@H](CCC(N)=O)C(=O)N[C@@H](CCC(=O)O)C(=O)N[C@@H](CC(C)C)C(=O)N[C@@H](Cc1cnc[nH]1)C(=O)N[C@@H](CCC(=O)O)C(=O)N[C@@H](CC(C)C)C(=O)N[C@@H](CCC(N)=O)C(=O)N[C@H](C(=O)N[C@@H](Cc1ccc(O)cc1)C(=O)N1CCC[C@H]1C(=O)N1CCC[C@H]1C(=O)N[C@H](C(=O)N[C@@H](CCC(=O)O)C(=O)N[C@H](C(=O)NCC(=O)N[C@@H](CO)C(=O)NCC(=O)N[C@H](C(=O)N[C@@H](Cc1ccc(O)cc1)C(N)=O)[C@@H](C)O)[C@@H](C)O)[C@@H](C)O)[C@@H](C)O)[C@@H](C)O)[C@@H](C)O ({C20 diacid-γGlu}-ASGLSTATLGRLSQELHELQTYPPTETGSGTY-NH2) | – | ≥ 200 | ≥ 200 | ≥ 200 | 0.098 | 0.023 | – | ≥ 200 | – | 0.019 | 0.116 | – | 0.077 | – | ≥ 200 | ≥ 200 | – | ≥ 200 | 0.053 |
| CC(C)C[C@H](NC(=O)CNC(=O)[C@H](CO)NC(=O)[C@H](C)NC(=O)CC[C@H](NC(=O)CCCCCCCCCCCCCCCCCCC(=O)O)C(=O)O)C(=O)N[C@@H](CO)C(=O)N[C@H](C(=O)N[C@@H](CC(C)C)C(=O)N[C@H](C(=O)N[C@@H](CC(C)C)C(=O)NCC(=O)N[C@@H](CCCNC(=N)N)C(=O)N[C@@H](CC(C)C)C(=O)N[C@@H](CO)C(=O)N[C@@H](CCC(N)=O)C(=O)N[C@@H](CCC(=O)O)C(=O)N[C@@H](CC(C)C)C(=O)N[C@@H](Cc1cnc[nH]1)C(=O)N[C@@H](CCC(=O)O)C(=O)N[C@@H](CC(C)C)C(=O)N[C@@H](CCC(N)=O)C(=O)N[C@H](C(=O)N[C@@H](Cc1ccc(O)cc1)C(=O)N1CCC[C@H]1C(=O)N[C@@H](CCCNC(=N)N)C(=O)N[C@H](C(=O)N[C@@H](CCC(=O)O)C(=O)N[C@H](C(=O)NCC(=O)N[C@@H](CO)C(=O)N[C@@H](CCC(N)=O)C(=O)N[C@H](C(=O)N[C@@H](Cc1ccc(O)cc1)C(N)=O)[C@@H](C)O)[C@@H](C)O)[C@@H](C)O)[C@@H](C)O)C(C)C)[C@@H](C)O ({C20 diacid-γGlu}-ASGLSTLVLGRLSQELHELQTYPRTETGSQTY-NH2) | 90 | ≥ 200 | ≥ 200 | ≥ 200 | 0.091 | 0.052 | 8.4 | – | – | 0.04 | 1.48 | 34 | 0.142 | 24 | ≥ 200 | ≥ 200 | – | – | – |
